Numbers after ± are expanded uncertainties.
Conditions: Crystal, Transpiration method

Structure (SMILES)	vapor or sublimation pressure (393 K)	vapor or sublimation pressure (403 K)	vapor or sublimation pressure (413 K)	vapor or sublimation pressure (423 K)	vapor or sublimation pressure (435.5 K)	vapor or sublimation pressure (455 K)	vapor or sublimation pressure (463 K)	vapor or sublimation pressure (473 K)	vapor or sublimation pressure (483 K)	vapor or sublimation pressure (493 K)	vapor or sublimation pressure (513 K)	vapor or sublimation pressure (503 K)	vapor or sublimation pressure (543 K)
CN.Cl [methylammonium chloride]	0.0044 ± 0.0003 kPa	0.0085 ± 0.0004 kPa	0.0171 ± 0.0008 kPa	0.0307 ± 0.0015 kPa	0.0643 ± 0.003 kPa	0.1683 ± 0.0068 kPa	0.2868 ± 0.015 kPa	0.4424 ± 0.018 kPa	0.7211 ± 0.043 kPa	1.116 ± 0.057 kPa	2.499 ± 0.098 kPa	–	–
Cl.N [ammonium chloride (NH4Cl)]	–	–	–	–	–	–	0.4871 ± 0.02 kPa	0.7748 ± 0.031 kPa	1.14 ± 0.045 kPa	1.683 ± 0.074 kPa	3.639 ± 0.18 kPa	2.758 ± 0.12 kPa	11.54 ± 0.52 kPa

Source: the NIST ThermoML archive (doi:10.1016/j.tca.2017.10.021)
